Test in all cases: NCI tumour cell line growth inhibition, 48 h
In assay [1] the test system is RPMI-8226 leukemia.
Assay [2] has as its system KM12 colon.
In assay [3] the test system is RXF 393 renal.
The test system of assay [4] is A549 NSCLC.
In assay [5] the test system is PC-3 prostate.
Assay [6] relates to SNB-75 CNS.
For assay [7], the system named is MOLT-4 leukemia.
The subject of assay [8] is SF-539 CNS.
Assay [9] relates to SF-268 CNS.
In assay [10] the test system is NCI-H23 lung.

Values joined by “and” are separate entries in the source; they are usually repeats but may differ in a detail not shown here. Equal values may be shown once.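 Grown in 96-well plates, cells were treated for 48 hours with each compound at five concentrations. Insufficient inhibition: endpoint recorded as highest concentration tested. Abbreviation: GI50, concentration required for 50% inhibition of growth. TGI is the concentration that stops growth completely.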

As for `CC(C(N)=O)N(C)C(=O)c1cnc2ccccc2c1` (stereo not given), the TGI in assay [1], in [2], in [3], in assay [4], in [5] and in assay [6] was > 100 µM each time. Besides, the TGI in assay [7] and in assay [8] was > 100 µM each time.
In the case of `NNC(=O)C(O)C(O)C(=O)NN` (stereo not given), the TGI in assay [1], in assay [2], in [3], in assay [9], in assay [4] and in assay [5] was > 100 µM throughout. Further, the TGI in [6], in assay [10] and in [7] was > 100 µM throughout.
Consider `COc1cccc2c1cc1c3c(cc4c(c32)OCO4)C(=O)N1`, for which the GI50 was 5.29 µM in assay [1]; 4.09 µM in assay [2]; 2.04 µM in assay [3]; 6.07 µM in assay [9]; 5.27 µM in [4]; 3.55 µM in assay [5]. The GI50 is 2.4 µM in assay [6], 3.45 µM in assay [10] and 4.8 µM in assay [8]. Moreover, the TGI in [1] was > 100 µM; in assay [2] it was 23.7 µM; in [3], 5.5 µM; in assay [9], 96.3 µM; in [4], > 100 µM; in [5], 24.4 µM. The TGI in assay [6] turned out to be 11.1 µM; in [10], 13.4 µM; in [8], 21.2 µM.
As for `CCCCCCCCCCCCCCCCOCC(O)CO` (stereo not given), the TGI in [1] was found to be 37.4 µM; in assay [2] it was 32.1 µM; in assay [3], 35.7 µM; in assay [9], 36 µM; in [4], 44 µM; in assay [5] it was 37.8 µM. The values for the TGI in assay [10], in assay [7] and in [8] were 37.2 µM, 29.6 µM and 31.5 µM, respectively.
For `CCCOC(=O)C1C2CCC(O2)C1C(=O)O` (stereo not given), the TGI in assay [1], in assay [2], in assay [3], in assay [9], in assay [4] and in assay [5] was > 100 µM throughout. The TGI in assay [6], in [10] and in [7] was > 100 µM throughout.
Regarding `O=C(/C=C/c1ccccc1)CCC1C(=O)NC(=S)NC1=O`, the TGI in [3], in assay [9], in assay [4], in assay [5], in [10] and in [7] was > 100 µM each time. For the same compound, the TGI in assay [8] was > 100 µM.
Turning to `Cc1ccc(-c2n[nH]c(=O)c3noc(-c4ccc(C)cc4)c23)cc1`, the GI50 in assay [1] was 0.616 µM; in assay [2], 0.713 µM; in assay [3], 0.419 µM; in assay [9], 2.21 µM; in assay [4] it was 0.74 µM; in assay [5], 2.07 µM. The GI50 was 4.86 µM in assay [10], 1.95 µM in assay [7] and 0.787 µM in assay [8]. Also, the TGI in [1] was > 100 µM; in [2], > 100 µM; in assay [3] it was 2.08 µM; in assay [9], 27.7 µM; in [4] it was > 100 µM; in assay [5], > 100 µM. In addition, the figures for the TGI in assay [10], in assay [7] and in assay [8] were > 100 µM, > 100 µM and 4.14 µM, respectively.
For `CCCCCCCCCCSC(=N)N`, the GI50 in assay [1] is 1.73 µM; in [2], 2.45 µM; in [3], 5.1 µM; in [9], 4.2 µM; in assay [4], 5.59 µM; in assay [5], 4.76 µM. For the same compound, the GI50 in assay [6] was 1.79 µM; in [10] it was 6.38 µM; in assay [8] it was 10.2 µM. The TGI in assay [1] was 4.19 µM; in assay [2], 6.5 µM; in [3] it was 17.6 µM; in assay [9] it was 17 µM; in assay [4], 18.6 µM; in [5], 17.5 µM. The TGI in [6] was determined as 4.44 µM; in assay [10], 21.3 µM; in assay [8], 22.1 µM.
Consider `C/C(=N/O)c1ccc(Nc2cc(-n3ccnc3)c3ccccc3n2)cc1`, for which the GI50 is 0.716 µM in assay [1]; 2.64 µM in [2]; > 100 µM in assay [9]; 7.21 µM in assay [4]; 3.69 µM in assay [5]; 7.04 µM in assay [6]. Besides, the values for the GI50 in [10], in [7] and in assay [8] were 42 µM, 2.95 µM and 11.5 µM, respectively. Besides, the TGI in assay [1] is 4.42 µM; in assay [2], 18.5 µM; in assay [9], > 100 µM; in assay [4], 36.4 µM; in assay [5], > 100 µM; in [6] it was 73.5 µM. Further, the TGI in assay [10] is > 100 µM; in assay [7] it was 18.5 µM; in [8], > 100 µM.
`Nc1c(C(=O)Nc2cccc3ccccc23)sc2nc3c(cc12)C(=O)CCC3`: the GI50 was 0.366 µM in assay [1]; 0.217 µM in [2]; 0.587 µM in [9]; 0.172 µM in [4]; 0.295 µM in assay [5]; 0.145 µM in [6]. For the same compound, the GI50 is 0.315 µM in [10], 0.659 µM in [7] and 0.152 µM in assay [8]. The TGI in [1] is > 38.2 µM; in assay [2], > 100 µM; in assay [9], > 65.6 µM; in assay [4], > 46.1 µM; in [5], > 48.5 µM; in [6] it was 12.2 µM. Further, the TGI in assay [10] is > 42.2 µM; in assay [7], > 100 µM; in assay [8], 0.456 µM.
Consider `CNC(c1ccncc1)C(NC)c1ccncc1` (stereo not given), for which the TGI in assay [1], in [2], in assay [3], in assay [9], in assay [4] and in assay [5] was > 100 µM throughout. For the same compound, the TGI in assay [6], in assay [10] and in [7] was > 100 µM in each case.
Turning to `Nc1ccn(C2OC(C(OC3OC(CO)C(O)C(N)C3O)C(O)C(O)C(O)C(O)CO)C(N)C(O)C2O)c(=O)n1` (stereo not given), the TGI in [1] is > 100 µM; in assay [2] it was > 100 µM; in [9], 68.6 µM; in assay [4] it was > 100 µM; in assay [5], > 100 µM; in assay [10], > 100 µM. The TGI is > 100 µM in [7] and 78.6 µM in [8].
For `CN1CCN(c2ccc3nc(-c4ccc(OCCCCN5CCN(CCCCN6C(=O)c7cccc8cccc(c78)C6=O)CC5)cc4)[nH]c3c2)CC1`, the GI50 was 33.9 µM in assay [1]; 43.8 µM in assay [2]; > 100 µM in [9]; > 100 µM in [4]; 69.3 µM in assay [5]; 28.9 µM in assay [6]. Further, the GI50 in assay [10] is > 100 µM; in assay [7] it was 51.1 µM; in assay [8], 33.5 µM. Moreover, the TGI in assay [1], in assay [2], in assay [9], in [4], in [5] and in [6] was > 100 µM each time. For the same compound, the TGI in assay [10], in assay [7] and in assay [8] was > 100 µM in each case.
With `CC1=C(N2CC2)C(=O)c2ccccc2C1=O`, the TGI turned out to be 2.64 µM in [2]; 2.64 µM in assay [3]; 5.14 µM in assay [9]; 2.17 µM in [4]; 3.87 µM in assay [5]; 2.32 µM in assay [6]. The values for the TGI in assay [7] and in [8] were 16.3 µM and 5.91 µM, respectively.
Consider `CC(N1CCOCC1)C(O)(c1ccccc1)c1ccccn1` (stereo not given), for which the TGI in assay [1], in [2], in [3], in assay [9], in assay [4] and in assay [5] was > 100 µM throughout. Besides, the TGI in assay [6], in [10] and in [8] was > 100 µM throughout.
As for `Cc1c2ccncc2c(C)c2c1[nH]c1ccc(Cl)cc12`, the GI50 is 1.77 µM in assay [1]; 4.25 µM in [2]; 2.63 µM and 2.66 µM in assay [9]; 3.27 µM and 3.56 µM in assay [4]; 2.99 µM in assay [10]; 0.91 µM and 0.471 µM in assay [7]. Besides, the GI50 in assay [8] is 2.09 µM. Moreover, the TGI in assay [1] was 9.7 µM and 4.43 µM; in assay [2], 5.7 µM and 18.9 µM; in [3], 9.91 µM; in assay [9], 12.5 µM and 25.2 µM; in [4], 11.2 µM and 15.2 µM; in assay [6], 10 µM and 12.7 µM. The TGI in [10] was 11.2 µM and 15 µM; in assay [7], 2.59 µM and 2.77 µM; in [8], 6.68 µM and 7.97 µM.

For the origin of these results see PubChem BioAssay (NCI).
